Converted amounts (≈) assume the structure as drawn.
What follows are molecules tested on Plasmodium falciparum (assay: In vitro antimalarial activity against Plasmodium falciparum).
Assay type: functional, organism-based

Going from `C[C@@H]1CCC2[C@@H](C)CCO[C@@H]3O[C@]4(C)CCC1C23OO4` (some centres undefined) to `C[C@@H]1CCC2[C@@H](C)CO[C@@H]3O[C@]4(C)CCC1C23OO4` (some centres undefined), the IC50 falls from 19 ng/mL (≈ 67.4 nM) to 0.15 ng/mL (≈ 0.559 nM) (130-fold).

Compared with `C[C@@H]1CCC2[C@@H](C)[C@H](CCCO)O[C@@H]3O[C@]4(C)CCC1C23OO4` (some centres undefined), `C[C@@H]1CCC2[C@@H](C)C(=O)O[C@@H]3O[C@]4(C)CCC1C23OO4` (some centres undefined) is 5.3-fold higher in IC50: 0.23 ng/mL (≈ 0.705 nM) for the first, 1.21 ng/mL (≈ 4.29 nM) for the second.

Source: ChEMBL document CHEMBL1125971, “A concise synthesis of 12-(3'-hydroxy-n-propyl)-deoxoartemisinin” (Bioorg Med Chem Lett, 1991)
